Test results from ChEMBL document CHEMBL5108051, “Improving the Antimicrobial Performance of Amphiphilic Cationic Antimicrobial Peptides Using Glutamic Acid Full-Scan and Positive Charge Compensation Strategies” (J Med Chem, 2022).
Converted amounts (≈) assume the structure as drawn. The source made the active and inactive calls. The rule behind the calls is not given here. Bridge positions count the residues as written; N and C are the ends. Square brackets hold non-standard residues; d marks the D form. Peptide text beside a SMILES is read from it. * marks the point of attachment. X1 = CC[C@H](C)CCCCC(=O)*; Dab = NCC[C@H](N)C(=O)O

What was measured:
Escherichia coli [1] = assay: Bactericidal activity against Escherichia coli ATCC 25922 at 1 times MIC measured after 6 hrs by time-killing kinetics assay; assay type: functional
Staphylococcus aureus [2] = assay: Antibiofilm activity against Staphylococcus aureus ATCC 25923 assessed as inhibition of biofilm formation measured at 0.5 to 4 times MIC after 24 hrs by crystal violet staining based assay; assay type: functional, organism-based; conditions: DDE = dose-dependent effect
Staphylococcus aureus [3] = assay: Antibacterial activity against Staphylococcus aureus ATCC 25923 assessed as fractional inhibitory concentration index in presence of rifampin by checkerboard assay; assay type: functional
Klebsiella pneumoniae = assay: Antibacterial activity against Klebsiella pneumoniae ATCC 700603 assessed as growth inhibition measured after 18 to 24 hrs by CLSI based broth microdilution method; assay type: functional; conditions: time 18-24 hrs
[4] = Acute toxicity in BALB/c mouse assessed as decrease in motility at 40 to 80 mg/kg, ip administered as single dose measured for 7 days; assay type: organism-based; conditions: in vivo, 168 h, dose 40-80 mg/kg, time 7 day
Escherichia coli [5] = assay: Antibiofilm activity against Escherichia coli ATCC 25922 assessed as inhibition of biofilm formation at 1 times MIC measured after 24 hrs by crystal violet staining based assay; assay type: functional, organism-based
Escherichia coli [6] = assay: Antibiofilm activity against Escherichia coli ATCC 25922 assessed as inhibition of biofilm formation at 0.5 times MIC measured after 24 hrs by crystal violet staining based assay; assay type: functional, organism-based
Escherichia coli [7] = assay: Induction of cell membrane damage in Escherichia coli ATCC 25922 assessed as increase in nucleic acid leakage by microplate reader assay; assay type: functional, organism-based; conditions: time 0-6 hrs, TDE = time-dependent effect
Staphylococcus aureus [8] = assay: Antimicrobial activity against Staphylococcus aureus ATCC 25923 assessed as fold increase in MIC in presence of NaCl; assay type: functional
Escherichia coli [9] = assay: Antibacterial activity against gentamicin resistant Escherichia coli ATCC 25922 assessed as fractional inhibitory concentration index in presence of rifampin by checkerboard assay; assay type: functional
[10] = Acute toxicity in BALB/c mouse assessed as abdominal twitching at 40 to 80 mg/kg, ip administered as single dose measured for 7 days; assay type: organism-based; conditions: in vivo, 168 h, dose 40-80 mg/kg, time 7 day
Cell membrane [11] = assay: Induction of cell membrane disruption in Staphylococcus aureus ATCC 25923 assessed as cell morphological damage measured after 30 mins by […] electron microscope analysis; assay type: subcellular
Escherichia coli [12] = assay: Antibacterial activity against Escherichia coli ATCC 25922 assessed as fractional inhibitory concentration index in presence of polymyxin B by checkerboard assay; assay type: functional
Escherichia coli [13] = assay: Antibacterial activity against rifampin resistant Escherichia coli ATCC 25922 assessed as fractional inhibitory concentration index in presence of gentamicin by checkerboard assay; assay type: functional
Escherichia coli [14] = assay: Antibacterial activity against gentamicin resistant Escherichia coli ATCC 25922 assessed as fractional inhibitory concentration index in presence of polymyxin B by checkerboard assay; assay type: functional
Staphylococcus aureus [15] = assay: Antibacterial activity against rifampin resistant Staphylococcus aureus ATCC 25923 assessed as fractional inhibitory concentration index in presence of polymyxin B by checkerboard assay; assay type: functional
Escherichia coli [16] = assay: Antibacterial activity against rifampin resistant Escherichia coli ATCC 25922 assessed as fractional inhibitory concentration index in presence of vancomycin by checkerboard assay; assay type: functional
[17] = Acute toxicity in BALB/c mouse assessed as mortality at 40 mg/kg, ip administered as single dose measured for 7 days; assay type: organism-based; conditions: in vivo, time 7 day, read-out: Activity
Escherichia coli [18] = assay: Antibacterial activity against rifampin resistant Escherichia coli ATCC 25922 assessed as fractional inhibitory concentration index in presence of polymyxin B by checkerboard assay; assay type: functional
Staphylococcus aureus [19] = assay: Antibacterial activity against Staphylococcus aureus ATCC 25923 assessed as fractional inhibitory concentration index in presence of polymyxin B by checkerboard assay; assay type: functional
Staphylococcus aureus [20] = assay: Antimicrobial activity against Staphylococcus aureus ATCC 25923 assessed as fold increase in MIC in presence of MgCl2; assay type: functional
Staphylococcus aureus [21] = assay: Antibacterial activity against gentamicin resistant Staphylococcus aureus ATCC 25923 assessed as fractional inhibitory concentration index in presence of vancomycin by checkerboard assay; assay type: functional
[22] = Acute toxicity in BALB/c mouse assessed as rough hairs at 40 to 80 mg/kg, ip administered as single dose measured for 7 days; assay type: organism-based; conditions: in vivo, 168 h, dose 40-80 mg/kg, time 7 day
Staphylococcus aureus [23] = assay: Antibacterial activity against Staphylococcus aureus ATCC 25923 assessed as resistance development measured after 15 passages at sub-MIC concentration by resistance development assay; assay type: functional, organism-based
[24] = Cytotoxicity against human Glomerular mesenchymal cell assessed as reduction in cell viability at 0 to 128 uM incubated for 1 hr by Resazurin cell viability kit; assay type: toxicity, cell-based; conditions: glomerular mesenchymal cells, dose 0-128 µM
Cell membrane [25] = assay: Induction of outer membrane permeabilization to NPN in Escherichia coli ATCC 25922 cells assessed as increase in fluorescence intensity by NPN fluorescent dye based microplate reader assay; assay type: subcellular
Staphylococcus aureus [26] = assay: Antibacterial activity against Staphylococcus aureus ATCC 25923 assessed as fractional inhibitory concentration index in presence of vancomycin by checkerboard assay; assay type: functional
Staphylococcus aureus [27] = assay: Antibacterial activity against gentamicin resistant Staphylococcus aureus ATCC 25923 assessed as fractional inhibitory concentration index in presence of polymyxin B by checkerboard assay; assay type: functional
Cell membrane [28] = assay: Induction of cytoplasmic membrane depolarization in Staphylococcus aureus ATCC 25923 assessed as increase in fluorescence intensity at 1 to 4 times MIC measured within 1 min by DiSC3-5 dye based fluorescence method; assay type: subcellular; conditions: DDE = dose-dependent effect
Staphylococcus aureus [29] = assay: Antibacterial activity against Staphylococcus aureus ATCC 25923 infected in BALB/C mouse pulmonary infection model assessed as increase in dilation of alveoli in lung at 10 mg/kg, ip after 24 hrs by H and E staining method; assay type: functional, organism-based
Escherichia coli [30] = assay: Antimicrobial activity against Escherichia coli ATCC 25922 in presence of KCl; assay type: functional, organism-based
[31] = Stability of compound in serum measured after 1 to 6 hrs by RP-HPLC analysis; assay type: ADME, cell-free; conditions: time 1-6 hrs
Escherichia coli [32] = assay: Antimicrobial activity against Escherichia coli ATCC 25922 in presence of NaCl; assay type: functional, organism-based
Escherichia coli [33] = assay: Bactericidal activity against Escherichia coli ATCC 25922 at 2 times MIC measured after 1 hr by time-killing kinetics assay; assay type: functional
Escherichia coli [34] = assay: Antimicrobial activity against Escherichia coli ATCC 25922 assessed as reduction in survival rate in presence of 0.02 to 2000 microg/ml of trypsin measured after 6 hrs; assay type: functional, organism-based
Escherichia coli [35] = assay: Bactericidal activity against Escherichia coli ATCC 25922 at 1 times MIC measured after 1 hr by time-killing kinetics assay; assay type: functional
Cell membrane [36] = assay: Induction of cytoplasmic membrane depolarization in Escherichia coli ATCC 25922 assessed as increase in fluorescence intensity at 4 times MIC measured within 1 min by DiSC3-5 dye based fluorescence method; assay type: subcellular
[37] = Acute toxicity in BALB/c mouse assessed as hyper-mobility at 10 to 20 mg/kg, ip administered as single dose measured for 7 days; assay type: organism-based; conditions: in vivo, 168 h, dose 10-20 mg/kg, time 7 day
HK-2 = assay: Cytotoxicity against human HK-2 cells assessed as reduction in cell viability at 0 to 128 uM incubated for 1 hr by Resazurin cell viability kit; assay type: toxicity, cell-based; conditions: hk-2, 1 h, dose 0-128 µM

Row | Compound | Activity (Staphylococcus aureus [2]) | fractional inhibitory concentration index (FICI) (Staphylococcus aureus [3]) | MIC (Klebsiella pneumoniae) | Activity [4] | Activity (Escherichia coli [5]) | Activity (Escherichia coli [6]) | Activity (Escherichia coli [7]) | fold change (FC) (Staphylococcus aureus [8]) | fractional inhibitory concentration index (FICI) (Escherichia coli [9]) | Activity [10] | Activity (Cell membrane [11]) | fractional inhibitory concentration index (FICI) (Escherichia coli [12]) | fractional inhibitory concentration index (FICI) (Escherichia coli [13]) | fractional inhibitory concentration index (FICI) (Escherichia coli [14]) | fractional inhibitory concentration index (FICI) (Staphylococcus aureus [15]) | fractional inhibitory concentration index (FICI) (Escherichia coli [16]) | mortality at 168 h [17] | Activity (Staphylococcus aureus [23]) | Activity (Cell membrane [25]) | fractional inhibitory concentration index (FICI) (Staphylococcus aureus [26]) | other results
1 | CC[C@H](C)[C@H](NC(=O)[C@@H]1CCCN1C(=O)[C@H](CC(C)C)NC(=O)[C@@H](N)Cc1ccccc1)C(=O)N[C@H](C(=O)N[C@@H](C)C(=O)N[C@@H](CCCCN)C(=O)N[C@@H](CC(C)C)C(=O)N[C@@H](CC(C)C)C(=O)N[C@@H](CO)C(=O)NCC(=O)N[C@@H](CC(C)C)C(=O)N[C@@H](CC(C)C)C(N)=O)C(C)C (H-FLPIVAKLLSGLL-NH2) | Dde | 0.75 | > 128 µM | Toxic | Active | Active | Tde | 2 | 0.625 | Toxic | Active | 0.625 | 0.625 | 0.75 | 0.5 | 0.25 | 40% | Active | Active | 1.0625 | Activity (Escherichia coli [1]): 100%; fractional inhibitory concentration index (FICI) (Escherichia coli [18]): 0.25; fractional inhibitory concentration index (FICI) (Staphylococcus aureus [19]): 0.75; fold change (FC) (Staphylococcus aureus [20]): 2; fractional inhibitory concentration index (FICI) (Staphylococcus aureus [21]): 0.625; Activity [22]: Toxic; CC50 at 1 h [24]: 35.9 µM; fractional inhibitory concentration index (FICI) (Staphylococcus aureus [27]): 0.625; Activity (Cell membrane [28]): Dde
2 | CC(C)C[C@H](NC(=O)[C@H](CC(C)C)NC(=O)[C@H](CCC(=O)O)NC(=O)[C@H](CCCCN)NC(=O)[C@H](CC(C)C)NC(=O)[C@H](CC(C)C)NC(=O)[C@H](CCCCN)NC(=O)[C@H](C)NC(=O)[C@@H](NC(=O)[C@H](CCCCN)NC(=O)[C@@H]1CCCN1C(=O)[C@H](CC(C)C)NC(=O)[C@@H](N)Cc1ccccc1)C(C)C)C(N)=O (H-FLPKVAKLLKELL-NH2) | Dde | – | 16 µM (≈ 24.2 µg/mL) | Toxic | – | – | Tde | – | 0.625 | Toxic | Active | 0.375 | 0.75 | 0.75 | 0.5 | 0.825 | 20% | Active | Active | 0.75 | Activity (Staphylococcus aureus [29]): Active; Activity (Escherichia coli [30]): Active; fractional inhibitory concentration index (FICI) (Escherichia coli [18]): 0.25; fractional inhibitory concentration index (FICI) (Staphylococcus aureus [19]): 0.75; Activity [22]: Toxic; CC50 at 1 h [24]: > 128 µM; fractional inhibitory concentration index (FICI) (Staphylococcus aureus [27]): 0.75; Stability [31]: Stable; Activity (Escherichia coli [32]): Active; Activity (Cell membrane [28]): Dde
3 | CC[C@H](C)CCCCC(=O)N[C@@H](CCN)C(=O)N[C@H](C(=O)N[C@@H](CCN)C(=O)N[C@H]1CCNC(=O)[C@H]([C@@H](C)O)NC(=O)[C@H](CCN)NC(=O)[C@H](CCN)NC(=O)[C@H](CC(C)C)NC(=O)[C@@H](Cc2ccccc2)NC(=O)[C@H](CCN)NC1=O)[C@@H](C)O (X1-[Dab]T[Dab][Dab][Dab][dF]L[Dab][Dab]T; lactam 4-C) | – | 2 | 4 µM (≈ 4.81 µg/mL) | – | Active | Active | Tde | 4 | 0.375 | – | – | – | 0.375 | – | – | – | – | Active | Active | 1.0625 | Activity (Escherichia coli [33]): 100%; Activity (Escherichia coli [30]): Active; Activity (Escherichia coli [34]): Active; Activity (Escherichia coli [35]): 100%; Activity (Cell membrane [36]): Active; fold change (FC) (Staphylococcus aureus [20]): 2; fractional inhibitory concentration index (FICI) (Staphylococcus aureus [21]): 1; Activity [37]: Toxic; Activity (HK-2): Non-Toxic; Stability [31]: Stable; Activity (Escherichia coli [32]): Active
